Results published in patent US4983328A, “N-(4-(3-aminopropyl)aminobutyl)-2-(ω-gua nidino-fatty-acid-amido(-2-substituted-ethanamide, salt thereof, and process for preparation thereof” (Bristol-Myers Company, priority 1981, dated 1991).
Converted amounts (≈) assume the structure as drawn.

Columns and labels:
[1] = chemical stability: retention (%) after heating at 60° C. for 4 hours, by HPLC; format: physicochemical
Method: The chemical stability of the present compound was evaluated by determining the retention (%) after heating at 60° C. for 4 hours. In Table 5 are shown the test results together with those for spergualin as reference. The retention was determined by means of high performance liquid chromatography (HPLC). The column was packed with Nucleosil® 5C18. The solvent used for spergualin was a mixture (6:94) of acetonitrile -0.01M sodium pentanesulfonate +0.01M Na2 HPO4 (pH 3), while that for the compounds of this invention was a mixture of acetonitrile -0.005M sodium pentanesulfonate ±0.01M Na2 HPO4 (pH 3). The mixture ratio in the latter case was varied for each particular compound. For instance, a mixing ratio of 10:90 was used for Compound No. 9, while that of 7:93 for Compound No. 22.

[2] = test system: mouse leukemia L-1210 cells; assay: growth inhibitory activity to cancer cells in vitro (L-1210, 48 hours); format: cell-based
Procedure, shortened: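 L-1210 cells from DBA/2 mouse ascites, cultured at 5×10^4 cells per well in RPMI 1640 with 10% FCS and 5 μM 2-mercaptoethanol, 37° C, CO2, for 48 h with compound. Cell counts by Coulter Counter gave % inhibition (1−T/C)×100, and IC50 was derived across concentrations.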

mouse leukemia L-1210 = assay: therapeutic effect on implanted cancer in mice (L-1210, survival over 30 days); format: in vivo, mouse (BDF1); conditions: L1210, ip, 720 h, 6 days
Procedure, shortened: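 In vivo antileukemic activity was assessed using 5-week-old male BDF1 mice implanted i.p. with 10^5 L-1210 cells. Compound in physiological saline was given by daily intraperitoneal injection over 6 days beginning on the day of implantation; survival was monitored over a 30-day observation period, comparing treated with control groups.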

[3] = acute toxicity in mice (single intraperitoneal administration); conditions: mouse, in vivo, ip; mice, single i.p.; read-out: LD50 (median lethal dose on single administration)
Method: In Table 8 median lethal doses (LD50) of typical compounds of this invention are shown, measured in mice upon single intraperitoneal administration, as well as maximum tolerated doses in terms of total dose when a fixed amount per unit body weight was administered intraperitoneally to mice once a day for 6 consecutive days.
*Median lethal dose on single administration.

[4] = cumulative toxicity in mice (maximum tolerated dose, once a day for 6 consecutive days); conditions: mouse, in vivo, ip, i.p. once a day for 6 consecutive days, total dose, read-out: Maximum Tolerated Dose (total dose not causing death)
Procedure, shortened: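 Mice dosed intraperitoneally once a day for 6 consecutive days with a fixed amount per unit body weight. The value is the maximum total dose not causing death.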

COC(NC(=O)CCCCCCNC(=N)N)C(=O)NCCCCNCCCN (racemic) [Compound 9, N-[4-(3-aminopropyl)aminobutyl]-2-(7-guanidinoheptanamido)-2-methoxyethanamide]
remaining at 4 h ([1]; pH 2, pH 2): 69.3% | remaining at 4 h ([1]; pH 3, pH 3): 89.3% | remaining at 4 h ([1]; pH 4, pH 4): 100% | remaining at 4 h ([1]; pH 5, pH 5): 100% | remaining at 4 h ([1]; pH 6, pH 6): 100% | remaining at 4 h ([1]; pH 7, pH 7): 100% | remaining at 4 h ([1]; pH 8, pH 8): 100% | remaining at 4 h ([1]; pH 9, pH 9): 97.5% | remaining at 4 h ([1]; pH 10, pH 10): 97.9% | inhibition at 5 µg/mL ([2]; L1210, 5 mcg/ml, read-out: Growth inhibition (%), (1-T/C) × 100): 35.5% | inhibition at 10 µg/mL ([2]; L1210, 10 mcg/ml, read-out: Growth inhibition (%), (1-T/C) × 100): 45.9% | inhibition at 20 µg/mL ([2]; L1210, 20 mcg/ml, read-out: Growth inhibition (%), (1-T/C) × 100): 62.3% | inhibition at 40 µg/mL ([2]; L1210, 40 mcg/ml, read-out: Growth inhibition (%), (1-T/C) × 100): 78.1% | inhibition at 80 µg/mL ([2]; L1210, 80 mcg/ml, read-out: Growth inhibition (%), (1-T/C) × 100): 90.9% | inhibition at 160 µg/mL ([2]; L1210, 160 mcg/ml, read-out: Growth inhibition (%), (1-T/C) × 100): 96% | IC50 ([2]; L1210, L-1210 cells, read-out: 50% inhibitory concentration): 12 µg/mL (≈ 29.9 µM) | responders at 0.2 mg/kg (mouse leukemia L-1210; 0.20 mg/kg/day i.p., read-out: Number of mice survived for 30 days (converted)): 0% | response vs control in vivo at 0.2 mg/kg (mouse leukemia L-1210; 0.20 mg/kg/day i.p., read-out: Prolongation of survival period (%), T/C × 100): 114% | responders at 0.39 mg/kg (mouse leukemia L-1210; 0.39 mg/kg/day i.p., read-out: Number of mice survived for 30 days (converted)): 0% | response vs control in vivo at 0.39 mg/kg (mouse leukemia L-1210; 0.39 mg/kg/day i.p., read-out: Prolongation of survival period (%), T/C × 100): 171% | responders at 0.78 mg/kg (mouse leukemia L-1210; 0.78 mg/kg/day i.p., read-out: Number of mice survived for 30 days (converted)): 50% | response vs control in vivo at 0.78 mg/kg (mouse leukemia L-1210; 0.78 mg/kg/day i.p., read-out: Prolongation of survival period (%), T/C × 100): > 300% | responders at 1.56 mg/kg (mouse leukemia L-1210; 1.56 mg/kg/day i.p., read-out: Number of mice survived for 30 days (converted)): 25% | response vs control in vivo at 1.56 mg/kg (mouse leukemia L-1210; 1.56 mg/kg/day i.p., read-out: Prolongation of survival period (%), T/C × 100): > 411% | responders at 3.13 mg/kg (mouse leukemia L-1210; 3.13 mg/kg/day i.p., read-out: Number of mice survived for 30 days (converted)): 100% | response vs control in vivo at 3.13 mg/kg (mouse leukemia L-1210; 3.13 mg/kg/day i.p., read-out: Prolongation of survival period (%), T/C × 100): > 429% | responders at 6.25 mg/kg (mouse leukemia L-1210; 6.25 mg/kg/day i.p., read-out: Number of mice survived for 30 days (converted)): 100% | response vs control in vivo at 6.25 mg/kg (mouse leukemia L-1210; 6.25 mg/kg/day i.p., read-out: Prolongation of survival period (%), T/C × 100): > 429% | responders at 12.5 mg/kg (mouse leukemia L-1210; 12.5 mg/kg/day i.p., read-out: Number of mice survived for 30 days (converted)): 100% | response vs control in vivo at 12.5 mg/kg (mouse leukemia L-1210; 12.5 mg/kg/day i.p., read-out: Prolongation of survival period (%), T/C × 100): > 429% | responders at 25 mg/kg (mouse leukemia L-1210; 25 mg/kg/day i.p., read-out: Number of mice survived for 30 days (converted)): 0% | response vs control in vivo at 25 mg/kg (mouse leukemia L-1210; 25 mg/kg/day i.p., read-out: Prolongation of survival period (%), T/C × 100): 0% | responders at 50 mg/kg (mouse leukemia L-1210; 50 mg/kg/day i.p., read-out: Number of mice survived for 30 days (converted)): 0% | response vs control in vivo at 50 mg/kg (mouse leukemia L-1210; 50 mg/kg/day i.p., read-out: Prolongation of survival period (%), T/C × 100): 0% | LD50 [3]: 12.5 to 25 mg/kg | MTD [4]: > 75 mg/kg
